Assay [1] in a line: CR-4 dependent inhibition of VEGF secretion from cell lines (VEGF-165 ELISA of medium). It is filed as cell-based. Conditions: Homo sapiens; all cell lines; 10^6 cells/ml incubated 5 hrs with compound, washed, fresh medium 24 hrs; FIGS. 1 to 4. The method, then:
VEGF secretion from the breast cancer cell lines HTB-133 (KDR+), HTB-131 (KDR−) and MDA-231, HTB-181 prostate cancer cell line, HTB-72 melanoma cell line, CR2-1730 human umbilical vascular endothelial (HUV-EC-C) cell line and normal HUVEC primary cells was measured as follows.
Medium was collected and analysed for the presence of VEGF using VEGF-165 ELISA kit (R&D Systems).
CR-4 dependent inhibition of VEGF secretion from breast, prostate, melanoma and HUVEC cell lines.
10^6 cells/ml of each cell lines were incubated for 5 hrs. with various concentrations of CR-4. Cells were washed twice in PBS to remove CR4 and fresh medium was added for 24 hrs. Medium was collected and analysed for the presence of VEGF using VEGF-165 ELISA kit (R&D Systems).

Assay [2] concerns HUVEC. Description: Inhibition of HUVEC growth by CR-4 induced VEGF depleted media of breast cancer cell lines ([3H]-Thymidine incorporation). The class given is cell-based, human. Conditions: FIG. 5. The procedure: CR-4 dependent inhibition of VEGF secretion results in the inhibition of HUVEC growth.
After an incubation for 5 hrs. with various concentrations of CR-4 the wells were washed twice and fresh HUVEC medium was added for 24 hrs. This medium with or without 10 ng/ml of recombinant VEGF was then transferred to parallel wells containing 10^5 cells/ml of HUVEC that were plated and grown in HUVEC medium for 24 hrs. Radioactive labelled [^3H]-Thymidine was added to HUVEC wells over night. Cells were harvested and their [^3H]-Thymidine incorporation was measured.
A general note: Uptake of a labelled nucleoside into DNA is a usual measure of proliferation.

Assay [3] concerns VEGF secretion from HTB-133 and MDA-231 cells. Nature of the assay: CR11 and CR19 dependent inhibition of VEGF secretion from breast cancer cell lines (VEGF-165 ELISA of medium). The class given is cell-based. Conditions: Homo sapiens, MDA-MB-231, 10^6 cells/ml incubated 5 hours with compound, washed, fresh medium 24 hours, FIGS. 6 and 7. The method, then:
CR11 and CR19 dependent inhibition of VEGF secretion from breast cancer cell lines.
Procedure: 10^6 cells/ml of each of HTB-133 and MDA-231 cells were incubated for 5 hours with various concentrations of CR11 or CR19. Cells were washed twice in PBS to remove CR11 and CR19 and fresh medium was added for 24 hours. Medium was collected and analysed for the presence of VEGF using VEGF-165 ELISA kit (R&D Systems).
(ELISA stands for enzyme-linked immunosorbent assay.)

Molecules are shown by their SMILES.

Turning to `N#C/C(=C\C=C\c1ccc(O)c(O)c1)C(=O)NCc1ccccc1` [CR4, (E,E)-2-(Benzylaminocarbonyl)-3-(3,4-dihydroxystyryl)acrylonitrile], the IC50 (commonly the midpoint of a concentration-inhibition curve) in assay [1] was in the range of 10 to 30 nM; in assay [2] (Homo sapiens, medium of HTB-133 (KDR+) and HTB-131 (KDR-) cells treated 5 hrs with compound, transferred to HUVEC, [3H]-Thymidine incorporation) it was 20 to 30 nM. In addition, the “Effect of recombinant VEGF on the inhibition of HUVEC growth” value in assay [2] (10 ng/ml recombinant VEGF added to the conditioned medium) is “rescued by recombinant VEGF”. For `COc1cc(/C=C/C=C(\C#N)C(=O)NCc2ccc(O)c(O)c2)cc(OC)c1O` [CR11, (E,E)-2-(3,4-Dihydroxybenzylaminocarbonyl)-3-(3,5-dimethoxy-4-hydroxystyryl)acrylonitrile], the IC50 in assay [3] was around 30 nM. On the same count and under the same terms, the figure for `N#C/C(=C\C=C\c1ccccc1)C(=O)NCc1ccc(O)c(O)c1` [CR19, (E,E)-2-(3,4 Dihydroxybenzylaminocarbonyl)-3-styrylacrylonitrile] is around 30 nM.

These data come from US20060241084A1, “Inhibition of vascular endothelial growth factor” (THE HOSPITAL FOR SICK CHILDREN, priority 2002, published 2006).
